Data as given in patent publication US6737383B1, “Herbicidal oxadiazolidines” (priority 1999, dated 2004).

Legend:
[1] = test system: cocklebur; assay: Test B pre/postemergence cocklebur; format: in vivo, Xanthium strumarium
Summary of the method: (§1)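 Test chemicals in a non-phytotoxic solvent mixture with surfactant were sprayed preemergence onto planted seeds and postemergence onto plants 2 to 18 cm tall (1- to 4-leaf stage). After twelve to sixteen days in a greenhouse, injury was visually rated against untreated controls from 0 (no effect) to 10 (complete control).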

[2] = test system: bedstraw; assay: Test B pre/postemergence bedstraw; format: in vivo, Galium aparine; settings: Postemergence
Summary of the method: as §1

[3] = test system: surinam grass; assay: Test B pre/postemergence surinam grass; format: in vivo, Brachiaria decumbens
Summary of the method: as §1

[4] = test system: velvetleaf; assay: Test B pre/postemergence velvetleaf; format: in vivo, Abutilon theophrasti
Summary of the method: as §1

[5] = test system: smallflower flatsedge; assay: Test B flood test smallflower flatsedge; format: in vivo, Cyperus difformis
Summary of the method: (§2)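 Each value is a visual injury score relative to controls, with 10 meaning complete control and 0 no effect. Evaluation took place twelve to sixteen days after the 2-leaf-stage plants were treated and kept in the greenhouse.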

[6] = test system: giant foxtail; assay: Test B pre/postemergence giant foxtail; format: in vivo, Setaria faberii
Summary of the method: as §1

[7] = test system: crabgrass; assay: Test B pre/postemergence crabgrass; format: in vivo, Digitaria sanguinalis
Summary of the method: as §1

[8] = test system: morningglory; assay: Test B pre/postemergence morningglory; format: in vivo, Ipomoea hederacea
Summary of the method: as §1

[9] = test system: blackgrass; assay: Test B pre/postemergence blackgrass; format: in vivo, Alopecurus myosuroides
Summary of the method: as §1

[10] = test system: duck salad; assay: Test B flood test duck salad; format: in vivo, Heteranthera limosa
Summary of the method: as §2

[11] = test system: wild oat; assay: Test B pre/postemergence wild oat; format: in vivo, Avena fatua
Summary of the method: as §1

[12] = test system: bamyardgrass; assay: Test B flood test barnyardgrass; format: in vivo, Echinochloa crus-galli
Summary of the method: as §2

[13] = test system: purple nutsedge; assay: Test B pre/postemergence purple nutsedge; format: in vivo, Cyperus rotundus
Summary of the method: as §1

[14] = test system: rice; assay: Test B flood test rice; format: in vivo, Oryza sativa
Summary of the method: as §2

[15] = test system: wheat; assay: Test B pre/postemergence wheat; format: in vivo, Triticum aestivum
Summary of the method: as §1

[16] = test system: soybean; assay: Test B pre/postemergence soybean; format: in vivo, Glycine max
Summary of the method: as §1

[17] = test system: sugar beet; assay: Test B pre/postemergence sugar beet; format: in vivo, Beta vulgaris
Summary of the method: as §1

[18] = test system: pigweed; assay: Test B pre/postemergence pigweed; format: in vivo, Amaranthus retroflexus
Summary of the method: as §1

[19] = test system: corn; assay: Test B pre/postemergence corn; format: in vivo, Zea mays
Summary of the method: as §1

[20] = test system: rape; assay: Test B pre/postemergence rape; format: in vivo, Brassica napus
Summary of the method: as §1

[21] = Postemergence, Rate 125 g/ha, scale 0 to 10, 0 is no effect, 10 is complete control
[22] = Postemergence, Rate 250 g/ha, scale 0 to 10
[23] = Postemergence, Rate 500 g/ha, scale 0 to 10, 0 is no effect, 10 is complete control
[24] = Preemergence, Rate 62 g/ha, scale of 0 to 10 where 0 is no effect and 10 is complete control
[25] = Preemergence, Rate 125 g/ha, scale 0 to 10, 0 is no effect, 10 is complete control
[26] = Preemergence, Rate 250 g/ha, scale 0 to 10, 0 is no effect, 10 is complete control
[27] = Preemergence, Rate 500 g/ha, scale 0 to 10, 0 is no effect, 10 is complete control
[28] = Rate 62 g/ha, Postemergence, scale 0 to 10, 0 no effect, 10 complete control
[29] = Rate 62 g/ha, flood test species, Pre-emergence, visual evaluation after twelve to sixteen days
[30] = Rate 125 g/ha, under heading Pre-emergence, flood test species, visual evaluation after twelve to sixteen days
[31] = Rate 250 g/ha, Pre-emergence (flood test species), scale 0 to 10, 0 is no effect, 10 is complete control
[32] = Rate 500 g/ha, Pre-emergence section of Table B, 0 to 10 scale (0 no effect, 10 complete control)

CC(C)N(C(=O)n1oc(=O)n(CC(=O)C2CC2)c1=O)c1ccc(F)cc1 [Compound 488]
6: B. signalgrass plant response rating ([3]; Postemergence, Rate 250 g/ha, scale 0 to 10, 0 no effect, 10 complete control) | Velvetleaf plant response rating [4, 27] | Corn plant response rating [19, 27]
8: Giant foxtail plant response rating [6, 21] | Crabgrass plant response rating [7, 22] | Plant response rating, Crabgrass [7, 24] | Plant response rating, Morningglory [8, 23] | Blackgrass plant response rating [9, 21] | Blackgrass plant response rating [9, 22] | Plant response rating, Blackgrass [9, 23] | Blackgrass plant response rating [9, 25] | Blackgrass plant response rating [9, 26] | Wild oats plant response rating [11, 25]
4: Bedstraw plant response rating ([2]; Rate 250 g/ha, scale 0 to 10) | B. signalgrass plant response rating [3, 21] | Plant response rating, B. signalgrass [3, 24] | Soybean plant response rating [16, 21] | Soybean plant response rating [16, 28] | Sugarbeets plant response rating [17, 25] | Plant response rating, Redroot pigweed [18, 24]
5: Giant foxtail plant response rating [6, 28] | Plant response rating, Blackgrass [9, 24] | Plant response rating, Wild oats [11, 23] | Wheat plant response rating [15, 27] | Plant response rating, Soybean [16, 23]
7: Plant response rating, B. signalgrass [3, 23] | B. signalgrass plant response rating [3, 25] | B. signalgrass plant response rating [3, 26] | Crabgrass plant response rating [7, 21] | Sugarbeets plant response rating [17, 27] | Rape plant response rating [20, 25]
10: B. signalgrass plant response rating [3, 27] | Giant foxtail plant response rating [6, 25] | Giant foxtail plant response rating [6, 27] | Crabgrass plant response rating [7, 25] | Crabgrass plant response rating [7, 27] | Blackgrass plant response rating [9, 27] | Wild oats plant response rating [11, 27] | Redroot pigweed plant response rating [18, 25] | Redroot pigweed plant response rating [18, 27] | Rape plant response rating [20, 27]
3: Plant response rating, Wild oats [11, 24] | Plant response rating, Wheat [15, 23]
1: Plant response rating, Velvetleaf [4, 23] | Morningglory plant response rating [8, 28] | Blackgrass plant response rating [9, 28] | Soybean plant response rating [16, 27] | Plant response rating, Sugarbeets [17, 23] | Plant response rating, Rape [20, 24]
9: Plant response rating, Bedstraw ([2]; Rate 500 g/ha, scale 0 to 10, 0 is no effect, 10 is complete control) | Plant response rating, Giant foxtail [6, 23] | Plant response rating, Giant foxtail [6, 24] | Plant response rating, Crabgrass [7, 23]
2: Bedstraw plant response rating ([2]; Rate 125 g/ha, scale 0 to 10, 0 is no effect, 10 is complete control) | Velvetleaf plant response rating [4, 25] | Morningglory plant response rating [8, 21] | Plant response rating, Nutsedge [13, 23] | Plant response rating, Redroot pigweed [18, 23]
0: Cocklebur plant response rating [1, 21] | Cocklebur plant response rating [1, 22] | Plant response rating, Cocklebur [1, 23] | Plant response rating, Cocklebur [1, 24] | Cocklebur plant response rating [1, 25] | Cocklebur plant response rating [1, 26] | Cocklebur plant response rating [1, 27] | Cocklebur plant response rating [1, 28] | Bedstraw plant response rating ([2]; Rate 62 g/ha, scale 0 to 10, 0 no effect, 10 complete control) | B. signalgrass plant response rating [3, 28] | Velvetleaf plant response rating [4, 21] | Plant response rating, Velvetleaf [4, 24] | Velvetleaf plant response rating [4, 28] | Plant response rating, S. Flatsedge (0 to 10 scale, 0 is no effect, 10 is complete control) [5, 29] | S. Flatsedge plant response rating (0 to 10 scale, 0 is no effect, 10 is complete control) [5, 30] | S. Flatsedge plant response rating [5, 31] | S. Flatsedge plant response rating [5, 32] | Plant response rating, Morningglory [8, 24] | Morningglory plant response rating [8, 25] | Morningglory plant response rating [8, 27] | Plant response rating, Ducksalad (0 to 10 scale, 0 is no effect, 10 is complete control) [10, 29] | Ducksalad plant response rating (0 to 10 scale, 0 is no effect, 10 is complete control) [10, 30] | Ducksalad plant response rating [10, 31] | Ducksalad plant response rating [10, 32] | Wild oats plant response rating [11, 21] | Wild oats plant response rating [11, 28] | Plant response rating, Barnyardgrass (0 to 10 scale, 0 is no effect, 10 is complete control) [12, 29] | Barnyardgrass plant response rating (0 to 10 scale, 0 is no effect, 10 is complete control) [12, 30] | Barnyardgrass plant response rating [12, 31] | Barnyardgrass plant response rating [12, 32] | Nutsedge plant response rating [13, 21] | Plant response rating, Nutsedge [13, 24] | Nutsedge plant response rating [13, 25] | Nutsedge plant response rating [13, 27] | Nutsedge plant response rating [13, 28] | Plant response rating, Rice (0 to 10 scale, 0 is no effect, 10 is complete control) [14, 29] | Rice plant response rating (0 to 10 scale, 0 is no effect, 10 is complete control) [14, 30] | Rice plant response rating [14, 31] | Rice plant response rating [14, 32] | Wheat plant response rating [15, 21] | Plant response rating, Wheat [15, 24] | Wheat plant response rating [15, 25] | Wheat plant response rating [15, 28] | Plant response rating, Soybean [16, 24] | Soybean plant response rating [16, 25] | Sugarbeets plant response rating [17, 21] | Plant response rating, Sugarbeets [17, 24] | Sugarbeets plant response rating [17, 28] | Redroot pigweed plant response rating [18, 21] | Redroot pigweed plant response rating [18, 28] | Corn plant response rating [19, 21] | Corn plant response rating [19, 22] | Plant response rating, Corn [19, 23] | Plant response rating, Corn [19, 24] | Corn plant response rating [19, 25] | Corn plant response rating [19, 28] | Rape plant response rating [20, 21] | Plant response rating, Rape [20, 23] | Rape plant response rating [20, 28]
